Measurements as given in patent US20040209929A1, “Fused heteroaryl carboxylic acids as PPAR agonists” (Agouron Pharmaceuticals, Inc., priority 2003, published 2004).

molecular target: T1, PPAR-γ (Homo sapiens, UniProt P37231); assay: Scintillation Proximity Assay (SPA), displacement of 3H labeled darglitazone from PPAR-γ; assay type: binding; settings: PPAR protein on polylysine beads, read-out: PPAR-γKi
T1 sequence (P37231 1-505): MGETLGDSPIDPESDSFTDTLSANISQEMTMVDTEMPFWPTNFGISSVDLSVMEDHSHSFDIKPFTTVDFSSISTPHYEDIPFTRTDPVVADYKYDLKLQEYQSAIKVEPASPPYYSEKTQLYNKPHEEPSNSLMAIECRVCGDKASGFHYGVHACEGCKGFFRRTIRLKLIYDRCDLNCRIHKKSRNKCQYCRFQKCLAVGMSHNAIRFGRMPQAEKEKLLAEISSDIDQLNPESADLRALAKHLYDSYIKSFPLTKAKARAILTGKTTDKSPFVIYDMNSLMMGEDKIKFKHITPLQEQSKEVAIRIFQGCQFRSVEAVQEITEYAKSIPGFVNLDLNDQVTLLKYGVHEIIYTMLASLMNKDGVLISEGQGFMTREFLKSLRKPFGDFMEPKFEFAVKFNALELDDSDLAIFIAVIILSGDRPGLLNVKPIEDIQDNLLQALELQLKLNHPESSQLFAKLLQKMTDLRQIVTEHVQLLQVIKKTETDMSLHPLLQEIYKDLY
Source text: Scintillatian Proximity Assay (SPA) Assays
In the SPA assay, 3H labeled darglitazone (for PPAR-γ) or GW^2331 (for PPAR-α) in bound to the PPAR protein captured on SPA polylysine beads and generates radioactive count signal that can be detected by TopCounts (Packard). The PPAR-bound 3H labeled ligand can be displaced by an unlabeled compound. The Ki of the compound can be then determined by the extent of displacement at various compound concentrations.
SPA polylysine beads, which can be purchased from Amersham Bioscience.
3H labeled Darglitazone for PPAR-γ.
Buffer—PBS, 10% glycerol, 14 mM beta-mercaptoethanol.

Question: With Cc1oc(-c2ccccc2)nc1CCOc1cccc2c1cnn2CCC(=O)O [Example 1, 3-{4-[2-(5-methyl-2-phenyl-1,3-oxazol-4-yl)ethoxy]-1H-indazol-1-yl}propanoic acid] as the molecule, how does the Ki read?
Answer: 0.58 µM

Question: Which Ki does the source give for Cc1oc(-c2ccccc2)nc1COc1ccc2cnn(CCCC(=O)O)c2c1 [Example 3, 4-{6-[(5-methyl-2-phenyl-1,3-oxazol-4-yl)methoxy]-1H-indazol-1-yl}butanoic acid] here?
Answer: > 100 µM

Question: Cc1oc(-c2ccccc2)nc1COc1ccc2cnn(CC(=O)O)c2c1 [Example 4, {6-[(5-methyl-2-phenyl-1,3-oxazol-4-yl)methoxy]-1H-indazol-1-yl}acetic acid] was tested. Which Ki did it give?
Answer: > 50 µM

Question: With O=C(O)CCn1ncc2ccc(OCc3nc(-c4ccccc4)oc3-c3ccccc3)cc21 [Example 6, 3-{6-[(2,5-diphenyl-1,3-oxazol-4-yl)methoxy]-1H-indazol-1-yl}propanoic acid] as the molecule, how does the Ki read?
Answer: 1.8 µM

Question: With O=C(O)Cn1ncc2ccc(OCc3nc(-c4ccccc4)oc3-c3ccccc3)cc21 [Example 7, {6-[(2,5-diphenyl-1,3-oxazol-4-yl)methoxy]-1H-indazol-1-yl}acetic acid] as the molecule, how does the Ki read?
Answer: 6.9 µM

Question: With O=C(O)CCCn1ncc2ccc(OCc3nc(-c4ccccc4)oc3-c3ccccc3)cc21 [Example 10, 4-{6-[(2,5-diphenyl-1,3-oxazol-4-yl)methoxy]-1H-indazol-1-yl}butanoic acid] as the molecule, how does the Ki read?
Answer: > 100 µM

Question: How did the Ki turn out when O=C(O)CCCn1ncc2c(OCc3nc(-c4ccccc4)oc3-c3ccccc3)cccc21 [Example 11, 4-{4-[(2,5-diphenyl-1,3-oxazol-4-yl)methoxy]-1H-indazol-1-yl}butanoic acid] was run?
Answer: > 100 µM

Question: How did the Ki turn out when O=C(O)Cn1ncc2c(OCc3nc(-c4ccccc4)oc3-c3ccccc3)cccc21 [Example 12, {4-[(2,5-diphenyl-1,3-oxazol-4-yl)methoxy]-1H-indazol-1-yl)acetic acid] was run?
Answer: 4 µM

Question: For Cc1oc(-c2ccccc2)nc1COc1ccc2cnn(CCC(=O)O)c2c1 [Example 13, 3-{6-[(5-methyl-2-phenyl-1,3-oxazol-4-yl)methoxy]-1H-indazol-1-yl}propanoic acid], which Ki is on record?
Answer: 41 µM

Question: Which Ki does the source give for O=C(O)CCn1ncc2c(OCc3nc(-c4ccccc4)oc3-c3ccccc3)cccc21 [Example 14, 3-{4-[(2,5-diphenyl-1,3-oxazol-4-yl)methoxy]-1H-indazol-1-yl}propanoic acid] here?
Answer: 3.7 µM

Question: Cc1oc(-c2ccccc2)nc1COc1cccc2c1cnn2CCCC(=O)O [Example 15, 4-{4-[(5-methyl-2-phenyl-1,3-oxazol-4-yl)methoxy]-1H-indazol-1-yl}butanoic acid] was tested. Which Ki did it give?
Answer: 10 µM

Question: How did the Ki turn out when Cc1oc(-c2ccccc2)nc1COc1cccc2c1cnn2CC(=O)O [Example 16, {4-[(5-methyl-2-phenyl-1,3-oxazol-4-yl)methoxy]-1H-indazol-1-yl}acetic acid] was run?
Answer: > 100 µM

Question: Cc1oc(-c2ccccc2)nc1COc1cccc2c1cnn2CCC(=O)O [Example 17, 3-{4-[(5-methyl-2-phenyl-1,3-oxazol-4-yl)methoxy]-1H-indazol-1-yl}propanoic acid] was tested. Which Ki did it give?
Answer: 4 µM

Question: How did the Ki turn out when Cc1oc(-c2ccccc2)nc1CCOc1cccc2c1cnn2CCCC(=O)O [Example 18] was run?
Answer: > 50 µM

Question: For Cc1oc(-c2ccccc2)nc1CCOc1ccc2cnn(CC(=O)O)c2c1 [Example 20, {6-[2-(5-methyl-2-phenyl-1,3-oxazol-4-yl)ethoxy]-1H-indazol-1-yl}acetic acid], which Ki is on record?
Answer: > 50 µM

Question: Cc1oc(-c2ccccc2)nc1CCOc1ccc2cnn(CCC(=O)O)c2c1 [Example 21, 3-{6-[2-(5-methyl-2-phenyl-1,3-oxazol-4-yl)ethoxy]-1H-indazol-1-yl}propanoic acid] was tested. Which Ki did it give?
Answer: > 50 µM

Question: For Cc1oc(-c2ccccc2)nc1CCOc1ccc2cnn(CCCC(=O)O)c2c1 [Example 22, 4-{6-[2-(5-methyl-2-phenyl-1,3-oxazol-4-yl)ethoxy]-1H-indazol-1-yl}butanoic acid], which Ki is on record?
Answer: > 50 µM

Question: Which Ki does the source give for Cc1oc(-c2ccccc2)nc1CCCOc1cccc2c1cnn2CCCC(=O)O [Example 23, 4-{4-[3-(5-methyl-2-phenyl-1,3-oxazol-4-yl)propoxy]-1H-indazol-1-yl}butanoic acid] here?
Answer: > 50 µM

Question: For Cc1oc(-c2ccccc2)nc1CCCOc1cccc2c1cnn2CC(=O)O [Example 25, {4-[3-(5-methyl-2-phenyl-1,3-oxazol-4-yl)propoxy]-1H-indazol-1-yl}acetic acid], which Ki is on record?
Answer: > 50 µM

Question: Which Ki does the source give for Cc1oc(-c2ccccc2)nc1CCCOc1cccc2c1cnn2CCC(=O)O [Example 27, 3-{4-[3-(5-methyl-2-phenyl-1,3-oxazol-4-yl)propoxy]-1H-indazol-1-yl}propanoic acid] here?
Answer: > 50 µM

Question: How did the Ki turn out when Cc1oc(-c2ccccc2)nc1CCOc1ccnc2c1ccn2CC(=O)O [Example 29, {4-[2-(5-methyl-2-phenyl-1,3-oxazol-4-yl)ethoxy]-1H-pyrrolo[2,3-b]pyridin-1-yl}acetic acid] was run?
Answer: > 50 µM

Question: Which Ki does the source give for Cc1oc(-c2ccccc2)nc1CCCn1ncc2c(OC(C)(C)C(=O)O)cccc21 [Example 33, 2-methyl-2-({1-[3-(5-methyl-2-phenyl-1,3-oxazol-4-yl)propyl]-1H-indazol-4-yl}oxy)propanoic acid] here?
Answer: 7 µM

Question: Which Ki does the source give for Cc1oc(-c2ccccc2)nc1CCOc1cccc2c1ncn2CCC(=O)O [Example 34, 3-{4-[2-(5-methyl-2-phenyl-1,3-oxazol-4-yl)ethoxy]-1H-benzimidazol-1-yl}propanoic acid] here?
Answer: > 50 µM

Question: With Cc1oc(-c2ccccc2)nc1CCOc1cccc2c1c(C(=O)C(F)(F)F)cn2CCC(=O)O [Example 44] as the molecule, how does the Ki read?
Answer: 19 µM

Question: How did the Ki turn out when Cc1oc(-c2ccccc2)nc1CCOc1ccnc2c1ccn2CCC(=O)O [Example 45] was run?
Answer: 9 µM

Question: How did the Ki turn out when Cc1oc(-c2ccccc2)nc1CCNc1ccnc2c1ccn2CCC(=O)O [Example 46] was run?
Answer: 0.58 µM

Question: With Cc1oc(-c2ccccc2)nc1CCn1ccc2c(OCC(=O)O)ccnc21 [Example 47] as the molecule, how does the Ki read?
Answer: > 50 µM

Question: Cc1oc(-c2ccccc2)nc1CCOc1cccc2c1ccn2CC(=O)O [Example 48] was tested. Which Ki did it give?
Answer: 30 µM

Question: With Cc1oc(-c2ccccc2)nc1CCOc1cccc2c1cnn2CC(=O)O [Example 49] as the molecule, how does the Ki read?
Answer: > 50 µM

Question: Which Ki does the source give for Cc1oc(-c2ccccc2)nc1CCOc1cccc2c1c(Cl)cn2CCC(=O)O [Example 50] here?
Answer: 4.9 µM

Question: Cc1oc(-c2ccccc2)nc1CCOc1cccc2c1ccn2CC(CCC(=O)O)C(=O)O (stereo not shown) [Example 51] was tested. Which Ki did it give?
Answer: > 100 µM

Question: How did the Ki turn out when Cc1oc(-c2ccccc2)nc1CCOc1ccnc2c(CCC(=O)O)cccc12 [Example 53] was run?
Answer: 8.5 µM

Question: With Cc1oc(-c2ccccc2)nc1CCOc1cccc2c1ccn2CCCC(=O)O [Example 54] as the molecule, how does the Ki read?
Answer: 16 µM

Question: How did the Ki turn out when Cc1oc(-c2ccccc2)nc1COc1cccc2c1ccn2CCCC(=O)O [Example 55] was run?
Answer: > 100 µM
